Assay results as given in patent US10085993B2, “Tablet formulation of 2-fluoro-N-methyl-4-[ 7-( quinolin-6-ylmethyl) imidazo [1,2-B] [1,2,4] triazin-2-yl] benzamide” (Novartis AG, priority 2014, dated 2018).
Where a name gives a salt, the structure may show the parent alone.

Key:
Gelling behavior = format: physicochemical; conditions: gelling can compromise tablet disintegration and dissolution rate
Description: 2-fluoro-N-methyl-4-[7-(quinolin-6-ylmethyl)imidazo[1,2-b][1,2,4]triazin-2-yl]benzamide dihydrochloride has a gelling behavior, mostly prominent at pHs above 3.5, which can compromise tablet disintegration and dissolution rate. Drug load and disintegrant type/levels can influence this behavior and need to be carefully selected to ensure adequate in vitro performance.

Bulk density = format: physicochemical
Description: 2-fluoro-N-methyl-4-[7-(quinolin-6-ylmethyl)imidazo[1,2-b][1,2,4]triazin-2-yl]benzamide dihydrochloride has a very low bulk density (0.085 g/mL), which justifies the need of a densification step prior tabletting. Wet granulation was identified as the most suitable technology for this compound.

[1] = Solubility at different pH

pH at which gelling behavior is mostly prominent (Gelling behavior): above 3.5
bulk density (Bulk density): 0.085 g/mL
solubility ([1]; pH 1, simulated gastric fluid): 7200 µg/mL
solubility ([1]; pH 6.8, aqueous buffer): 79.3 µg/mL
Structure (SMILES): CNC(=O)c1ccc(-c2cnc3ncc(Cc4ccc5ncccc5c4)n3n2)cc1F [2-fluoro-N-methyl-4-[7-(quinolin-6-ylmethyl)imidazo[1,2-b][1,2,4]triazin-2-yl]benzamide dihydrochloride]
